Active and inactive are the calls of the source. The calls are words filed in the database; no cut-off is given here.
Tests used:
[1] = biological target: T1, Inactive serine/threonine-protein kinase 19 (Homo sapiens) (UniProt P49842); test: Inhibition of wild-type STK19 in human primary melanocytes at 0.1-3 uM relative to control; format: cell-based
T1 sequence (whole entry): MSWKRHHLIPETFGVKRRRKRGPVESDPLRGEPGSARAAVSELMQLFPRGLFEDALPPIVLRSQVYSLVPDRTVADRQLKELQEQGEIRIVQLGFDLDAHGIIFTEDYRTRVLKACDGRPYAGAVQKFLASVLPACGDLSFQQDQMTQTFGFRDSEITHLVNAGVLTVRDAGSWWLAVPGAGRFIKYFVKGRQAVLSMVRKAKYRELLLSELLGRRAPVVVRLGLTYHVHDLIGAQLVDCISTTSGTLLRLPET

[2] = tested on: T2, Inactive serine/threonine-protein kinase 19 (Homo sapiens), P49842 [D89N]; test: Inhibition of STK19 D89N mutant in human primary melanocytes at 0.1-3 uM relative to control; format: cell-based
T2 sequence (whole entry): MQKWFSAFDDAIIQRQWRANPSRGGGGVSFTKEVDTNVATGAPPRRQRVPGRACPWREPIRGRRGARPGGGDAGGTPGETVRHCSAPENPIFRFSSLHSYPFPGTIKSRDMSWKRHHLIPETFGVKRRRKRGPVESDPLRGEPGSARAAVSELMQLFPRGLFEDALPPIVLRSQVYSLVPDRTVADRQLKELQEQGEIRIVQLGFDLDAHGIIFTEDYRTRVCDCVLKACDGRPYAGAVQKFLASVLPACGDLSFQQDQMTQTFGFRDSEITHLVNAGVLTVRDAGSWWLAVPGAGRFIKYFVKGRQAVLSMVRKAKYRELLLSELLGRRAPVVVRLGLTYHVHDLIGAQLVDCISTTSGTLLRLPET

[3] = Toxicity in C57BL/6J mouse assessed as effect on alkaline phosphatase level at 25 mg/kg, administered twice daily for 20 days; format: organism-based; conditions: in vivo, 480 h
[4] = Toxicity in C57BL/6J mouse assessed as effect on total protein level at 25 mg/kg, administered twice daily for 20 days; format: organism-based; conditions: in vivo, 480 h
[5] = Toxicity in C57BL/6J mouse assessed as effect on albumin level at 25 mg/kg, administered twice daily for 20 days; format: organism-based; conditions: in vivo, 480 h
[6] = Toxicity in C57BL/6J mouse assessed as effect on lactic dehydrogenase level at 25 mg/kg, administered twice daily for 20 days; format: organism-based; conditions: in vivo, 480 h
[7] = Toxicity in C57BL/6J mouse assessed as heart histology at 25 mg/kg, administered twice daily for 20 days by H and E staining method; format: organism-based; conditions: in vivo, 480 h
[8] = Toxicity in C57BL/6J mouse assessed as lung histology at 25 mg/kg, administered twice daily for 20 days by H and E staining method; format: organism-based; conditions: in vivo, 480 h
hTERT [9] = test: Inhibition of colony formation in hTERT/p53DD/CDK4 (R24C) immortal melanocytes expressing wild-type STK19 at 3 uM relative to control; format: functional; conditions: Homo sapiens
hTERT [10] = test: Antiproliferative activity against hTERT/p53DD/CDK4 (R24C) immortal melanocytes expressing STK19 D89N mutant at 3 uM relative to control; format: functional, tissue-based; conditions: Homo sapiens
hTERT [11] = test: Antitumor activity against hTERT/p53DD/CDK4 (R24C) immortal melanocytes expressing wild-type STK19 xenografted in nude mouse assessed as reduction in tumor formation; format: functional; conditions: Homo sapiens
SK-MEL-2 [12] = test: Antitumor activity against human SK-MEL-2 cells xenografted in nude mouse assessed as inhibition of cancer cell proliferation at 50 mg/kg, administered for 21 days; format: functional, organism-based
SK-MEL-2 [13] = test: Antitumor activity against human SK-MEL-2 cells xenografted in nude mouse assessed as induction of apoptosis at 25 mg/kg, administered for 21 days; format: functional, organism-based
[14] = Toxicity in nude mouse xenografted with human SK-MEL-2 cells assessed as increase in animal survival at 50 mg/kg; format: organism-based; conditions: in vivo
SK-MEL-2 [15] = test: Inhibition of STK19 in nude mouse xenografted with human SK-MEL-2 cells assessed as decrease in NRAS phosphorylation at 25 mg/kg; format: functional, organism-based
SK-MEL-2 [16] = test: Inhibition of STK19 in nude mouse xenografted with human SK-MEL-2 cells assessed as decrease in NRAS phosphorylation at 50 mg/kg; format: functional, organism-based
SK-MEL-2 [17] = test: Inhibition of G9a in nude mouse xenografted with human SK-MEL-2 cells assessed as decrease in H3K9 methylation at 50 mg/kg; format: functional, organism-based
[18] = biological target: T1, Inactive serine/threonine-protein kinase 19 (Homo sapiens); test: Inhibition of STK19 in human SK-MEL-2 cells expressing NRAS Q61R and wild-type BRAF at 1-3 uM assessed as NRAS signaling relative to control; format: cell-based
[19] = biological target: T1, Inactive serine/threonine-protein kinase 19 (Homo sapiens); test: Inhibition of STK19 in human SK-MEL-2 cells expressing NRAS Q61R and wild-type BRAF at 1-3 uM assessed as MEK-ERK signaling relative to control; format: cell-based
[20] = biological target: T1, Inactive serine/threonine-protein kinase 19 (Homo sapiens); test: Inhibition of STK19 in human UACC62 cells expressing wild-type NRAS and BRAF V600E mutant at 1-3 uM assessed as MEK-ERK signaling relative to control; format: cell-based; conditions: UACC-62
[21] = biological target: T1, Inactive serine/threonine-protein kinase 19 (Homo sapiens); test: Inhibition of STK19 in human A375 cells expressing wild-type NRAS and BRAF V600E mutant at 1-3 uM assessed as PI3K signaling relative to control; format: cell-based; conditions: A-375
[22] = biological target: T1, Inactive serine/threonine-protein kinase 19 (Homo sapiens); test: Inhibition of STK19 in human UACC62 cells expressing wild-type NRAS and BRAF V600E mutant at 1-3 uM assessed as PI3K signaling relative to control; format: cell-based; conditions: UACC-62
SK-MEL-2 [23] = test: Growth inhibition of human SK-MEL-2 cells expressing NRAS Q61R and wild-type BRAF at 1-3 uM relative to control; format: functional, cell-based
A-375 = test: Growth inhibition of human A375 cells expressing wild-type NRAS and BRAF V600E mutant at 1-3 uM relative to control; format: functional, cell-based
UACC-62 = test: Growth inhibition of human UACC62 cells expressing wild-type NRAS and BRAF V600E mutant at 1-3 uM relative to control; format: functional, cell-based
SK-MEL-2 [24] = test: Induction of apoptosis in human SK-MEL-2 cells expressing NRAS Q61R and wild-type BRAF at 1-3 uM relative to control; format: functional, cell-based
[25] = biological target: T1, Inactive serine/threonine-protein kinase 19 (Homo sapiens); test: Inhibition of STK19 in human SK-MEL-2 cells expressing NRAS Q61R and wild-type BRAF at 300 nM assessed as NRAS phosphorylation relative to control; format: cell-based

COc1cc2nc(NC3CC3)nc(NC3CCN(C(C)C)CC3)c2cc1OC.O=C(O)C(F)(F)F
inhibition [1]: Active
inhibition [2]: Active
Activity [3]: Non-Toxic
Activity [4]: Non-Toxic
Activity [5]: Non-Toxic
Activity [6]: Non-Toxic
Activity [7]: Non-Toxic
Activity [8]: Non-Toxic
Activity (hTERT [9]): Active
Activity (hTERT [10]): Active
Activity (hTERT [11]): Active
Activity (SK-MEL-2 [12]): Active
Activity (SK-MEL-2 [13]): Active
Activity [14]: Non-Toxic
inhibition (SK-MEL-2 [15]): Active
inhibition (SK-MEL-2 [16]): Active
inhibition (SK-MEL-2 [17]): inactive
inhibition [18]: Active
inhibition [19]: Active
inhibition [20]: inactive
inhibition [21]: inactive
inhibition [22]: inactive
Activity (SK-MEL-2 [23]): Active
Activity (A-375): inactive
Activity (UACC-62): inactive
Activity (SK-MEL-2 [24]): Active
inhibition [25]: Active

— ChEMBL document CHEMBL4804283, “Stk19 inhibitors for treatment of cancer” (2020)
